Assay results taken from ChEMBL document CHEMBL2046308, “Thiol-reactive compounds from garlic inhibit the epithelial sodium channel (ENaC)” (Bioorg Med Chem, 2012).
Calls of active or inactive are those of the source. The calls are words filed in the database; no cut-off is given here.

Molecular target: T1, Amiloride-sensitive sodium channel, ENaC (Homo sapiens) (UniProt P37088+P51168+P51170)
Experiment: Inhibition of human ENaC alpha-beta-gamma expressed in Xenopus laevis oocytes assessed as effect on transmembrane currents at 100 uM by two-electrode voltage-clamp technique
Format: cell-based
Conditions: Oocyte

Compound | inhibition [%]
C=CCS[S+]([O-])CC=C (stereo unspecified) | 77

Molecular target: T1, Amiloride-sensitive sodium channel, ENaC (Homo sapiens)
Experiment: Inhibition of human ENaC alpha-beta-gamma expressed in Xenopus laevis oocytes assessed as effect on transmembrane currents at 1 mM by two-electrode voltage-clamp technique
Format: cell-based
Conditions: Oocyte

Compound | inhibition
C=CCSSCC=C | inactive
C=CCSSSCC=C | inactive
C=CCSC[C@H](N)C(=O)O | inactive
C=CCSCC=C | inactive
C=CC[S@+]([O-])C[C@H](N)C(=O)O | inactive
